# Measurements from patent US20250144094A1 (Erasca, Inc., priority 2021, published 2025).
# Target: Recombinant human ULK1 (1-649) (Homo sapiens (Human), UniProt O75385)
# Assay: ULK1 ADP Glo kinase activity assay (MBP substrate)
# Settings: 25° C., 40 minutes, read-out: ULK1 biochemical IC50
# Outline: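 GST-tagged ULK1 (1-649) from Sf9 cells phosphorylated MBP, with ATP, for 40 min at 25 °C across a 12-point series from 10 uM. ADP formed was quantified by ADP-Glo luminescence against DMSO controls. IC50 came from a four-parameter variable-slope fit of log concentration.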
# Chain of Recombinant human ULK1 (1-649) (O75385 1-649): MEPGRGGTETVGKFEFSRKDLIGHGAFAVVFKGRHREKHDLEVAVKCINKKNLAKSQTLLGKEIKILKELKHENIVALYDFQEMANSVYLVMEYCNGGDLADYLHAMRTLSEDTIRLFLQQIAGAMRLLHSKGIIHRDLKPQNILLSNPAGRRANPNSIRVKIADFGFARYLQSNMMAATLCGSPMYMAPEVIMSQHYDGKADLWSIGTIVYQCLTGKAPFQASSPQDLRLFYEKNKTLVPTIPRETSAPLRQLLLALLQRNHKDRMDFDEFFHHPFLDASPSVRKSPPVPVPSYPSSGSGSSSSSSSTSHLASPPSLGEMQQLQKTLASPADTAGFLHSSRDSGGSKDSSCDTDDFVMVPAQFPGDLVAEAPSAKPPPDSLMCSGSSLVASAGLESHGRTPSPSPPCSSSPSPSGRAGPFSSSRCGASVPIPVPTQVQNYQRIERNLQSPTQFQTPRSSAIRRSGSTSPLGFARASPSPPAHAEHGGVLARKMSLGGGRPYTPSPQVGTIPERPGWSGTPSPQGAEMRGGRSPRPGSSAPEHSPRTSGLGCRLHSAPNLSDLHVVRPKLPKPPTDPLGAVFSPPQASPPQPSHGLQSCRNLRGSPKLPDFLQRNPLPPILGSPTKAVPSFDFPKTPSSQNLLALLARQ
row,Structure (SMILES),IC50
1,"Cc1nn(C2CN(C)C2)cc1Nc1ncc(C(F)(F)F)c(-c2cc(S(C)(=O)=O)cs2)n1 [Example 120, N-[3-methyl-1-(1-methylazetidin-3-yl)pyrazol-4-yl]-4-(4-methylsulfonyl-2-thienyl)-5-(trifluoromethyl)pyrimidin-2-amine]",10 to 50 nM
2,"CS(=O)(=O)c1csc(-c2nc(Nc3cc(C4CNC4)ccc3Cl)ncc2C(F)(F)F)c1 [Example 121, N-(5-(azetidin-3-yl)-2-chlorophenyl)-4-(4-(methylsulfonyl)thiophen-2-yl)-5-(trifluoromethyl)pyrimidin-2-amine]",50 to 100 nM
3,"CN1CC(c2ccc(Cl)c(Nc3ncc(C(F)(F)F)c(-c4cc(S(C)(=O)=O)cs4)n3)c2)C1 [Example 122, N-(2-chloro-5-(1-methylazetidin-3-yl)phenyl)-4-(4-(methylsulfonyl)thiophen-2-yl)-5-(trifluoromethyl)pyrimidin-2-amine]",100 to 500 nM
4,"Cc1nn(C2CNC2)cc1Nc1ncc(C(F)(F)F)c(-c2cc(S(C)(=O)=O)cs2)n1 [Example 123, N-(1-(azetidin-3-yl)-3-methyl-1H-pyrazol-4-yl)-4-(4-(methylsulfonyl)thiophen-2-yl)-5-(trifluoromethyl)pyrimidin-2-amine]",10 to 50 nM
5,"Cc1nn(C2CN(C)C2)cc1Nc1ncc(C(F)(F)F)c(-c2cc(S(C)(=O)=O)cs2)n1 [Example 124, N-(3-methyl-1-(1-methylazetidin-3-yl)-1H-pyrazol-4-yl)-4-(4-(methylsulfonyl)thiophen-2-yl)-5-(trifluoromethyl)pyrimidin-2-amine]",100 to 500 nM
6,"O=C1NCCS(=O)(=O)c2cc(-c3nc(Nc4cc5c(cc4Cl)CN(CC(F)(F)F)CC5)ncc3C(F)(F)F)sc21 [Example 125, 7-(2-((7-chloro-2-(2,2,2-trifluoroethyl)-1,2,3,4-tetrahydroisoquinolin-6-yl)amino)-5-(trifluoromethyl)pyrimidin-4-yl)-3,4-dihydrothieno[2,3-f][1,4]thiazepin-5(2H)-one 1,1-dioxide]",100 to 500 nM
7,"O=C1NCCS(=O)(=O)c2cc(-c3nc(Nc4cc5c(cc4Cl)CN(C4CC4)CC5)ncc3C(F)(F)F)sc21 [Example 126, 7-(2-((7-chloro-2-cyclopropyl-1,2,3,4-tetrahydroisoquinolin-6-yl)amino)-5-(trifluoromethyl)pyrimidin-4-yl)-3,4-dihydrothieno[2,3-f][1,4]thiazepin-5(2H)-one 1,1-dioxide]",10 to 50 nM
8,"CS(=O)(=O)c1csc(-c2nc(Nc3cc4c(cc3Cl)CNCCC4)ncc2C(F)(F)F)c1 [Example 127, 8-chloro-N-(4-(4-(methylsulfonyl)thiophen-2-yl)-5-(trifluoromethyl)pyrimidin-2-yl)-2,3,4,5-tetrahydro-1H-benzo[c]azepin-7-amine]",≤ 10 nM
9,"CS(=O)(=O)c1csc(-c2nc(Nc3cn(C4CCNCC4)nc3C3CC3)ncc2C(F)(F)F)c1 [Example 128, N-(3-Cyclopropyl-1-(piperidin-4-yl)-1H-pyrazol-4-yl)-4-(4-(methylsulfonyl)thiophen-2-yl)-5-(trifluoromethyl)pyrimidin-2-amine]",≤ 10 nM
10,"CN1CCC(n2cc(Nc3ncc(C(F)(F)F)c(-c4cc(S(C)(=O)=O)cs4)n3)c(C3CC3)n2)CC1 [Example 129, N-(3-cyclopropyl-1-(1-methylpiperidin-4-yl)-1H-pyrazol-4-yl)-4-(4-(methylsulfonyl)thiophen-2-yl)-5-(trifluoromethyl)pyrimidin-2-amine]",≤ 10 nM
11,"CS(=O)(=O)c1csc(-c2nc(Nc3cc4c(cc3C3CC3)CNC4)ncc2C(F)(F)F)c1 [Example 131, 6-cyclopropyl-N-(4-(4-(methylsulfonyl)thiophen-2-yl)-5-(trifluoromethyl)pyrimidin-2-yl)isoindolin-5-amine]",≤ 10 nM
12,"CS(=O)(=O)c1csc(-c2nc(Nc3cc4c(cc3C3CC3)CNCC4)ncc2C(F)(F)F)c1 [Example 132, 7-cyclopropyl-N-(4-(4-(methylsulfonyl)thiophen-2-yl)-5-(trifluoromethyl)pyrimidin-2-yl)-1,2,3,4-tetrahydroisoquinolin-6-amine]",≤ 10 nM
13,"CN1CCCc2cc(Nc3ncc(C(F)(F)F)c(-c4cc(S(C)(=O)=O)cs4)n3)c(Cl)cc2C1 [Example 133, 8-chloro-2-methyl-N-(4-(4-(methylsulfonyl)thiophen-2-yl)-5-(trifluoromethyl)pyrimidin-2-yl)-2,3,4,5-tetrahydro-1H-benzo[c]azepin-7-amine]",≤ 10 nM
14,"CCN1CCS(=O)(=O)c2cc(-c3nc(Nc4cc5c(cc4Cl)CNCC5)ncc3C(F)(F)F)sc2C1=O [Example 135, 7-(2-((7-chloro-1,2,3,4-tetrahydroisoquinolin-6-yl)amino)-5-(trifluoromethyl)pyrimidin-4-yl)-4-ethyl-3,4-dihydrothieno[2,3-f][1,4]thiazepin-5(2H)-one 1,1-dioxide]",≤ 10 nM
15,O=C1NCCOc2sc(-c3nc(Nc4cc5c(cc4Cl)CN(C(=O)C(F)(F)F)CC5)ncc3C(F)(F)F)cc21 [compound 70],10 to 50 nM
16,CS(=O)(=O)c1cc(-c2nc(Nc3cc4c(cc3Cl)CN(C(=O)C(F)(F)F)CC4)ncc2C(F)(F)F)sc1C1=CCOCC1 [compound 74],> 500 nM
